According to ChEMBL document CHEMBL3046333, “Synthesis and bioevaluation of novel analogues of justicidin A” (Med Chem Res, 2010):

Tested on: HepG2
Test: Cytotoxicity against Homo sapiens (human) HepG2 cells after 3 days by MTT assay
Assay type: functional, cell-based
Conditions: HepG2, 72 h

Row | SMILES | IC50
1 | CCOc1c2c(c(-c3ccc4c(c3)OCO4)c3cc(OC)c(OC)cc13)C(=O)OC2 | 141 µM
2 | CCCOc1c2c(c(-c3ccc4c(c3)OCO4)c3cc(OC)c(OC)cc13)C(=O)OC2 | 152 µM
3 | CCCCOc1c2c(c(-c3ccc4c(c3)OCO4)c3cc(OC)c(OC)cc13)C(=O)OC2 | 127 µM
4 | CCCCCOc1c2c(c(-c3ccc4c(c3)OCO4)c3cc(OC)c(OC)cc13)C(=O)OC2 | 291 µM
5 | COc1cc2c(OCCBr)c3c(c(-c4ccc5c(c4)OCO5)c2cc1OC)C(=O)OC3 | 263 µM
6 | COc1cc2c(OCCCBr)c3c(c(-c4ccc5c(c4)OCO5)c2cc1OC)C(=O)OC3 | 161 µM
7 | COc1cc2c(OCCCCBr)c3c(c(-c4ccc5c(c4)OCO5)c2cc1OC)C(=O)OC3 | 155 µM
8 | COc1cc2c(OCCCCCBr)c3c(c(-c4ccc5c(c4)OCO5)c2cc1OC)C(=O)OC3 | 207 µM
9 | COc1cc2c(OCCCCCCBr)c3c(c(-c4ccc5c(c4)OCO5)c2cc1OC)C(=O)OC3 | 167 µM
10 | COc1cc2c(O)c3c(c(-c4ccc5c(c4)OCO5)c2cc1OC)C(=O)OC3 [DIPHYLLIN] | > 500 µM
11 | COc1cc([C@@H]2c3cc4c(cc3[C@@H](O[C@@H]3O[C@@H]5CO[C@@H](C)O[C@H]5[C@H](O)[C@H]3O)[C@H]3COC(=O)[C@H]23)OCO4)cc(OC)c1O [ETOPOSIDE] | 427 µM
12 | COc1cc2c(OC)c3c(c(-c4ccc5c(c4)OCO5)c2cc1OC)C(=O)OC3 [JUSTICIDIN A] | 163 µM
